{"source": "ChEMBL document CHEMBL4602661", "about": "“Immunosuppressive Nor-isopimarane Diterpenes from Cultures of the Fungicolous Fungus Xylaria longipes HFG1018” (J Nat Prod, 2020)", "key": {"[1]": {"test_system": "T-cell", "test": "Immunosuppressive activity against BALB/C mouse T lymphocytes assessed as reduction in concanavalin A-induced cell proliferation by measuring [3H]-thymidine uptake incubated for 8 hrs by Beta scintillation counting method", "format": "functional, cell-based"}, "[2]": {"test_system": "B-cell line", "test": "Immunosuppressive activity against BALB/C mouse B lymphocytes assessed as reduction in LPS-induced cell proliferation by measuring [3H]-thymidine uptake incubated for 8 hrs by Beta scintillation counting method", "format": "functional, cell-based"}, "[3]": {"test": "Cytotoxicity against BALB/C mouse B lymphocytes assessed as cell viability at 40 uM after 8 to 10 hrs by CCK-8 assay relative to control", "format": "cell-based", "details": "read-out: Activity"}, "[4]": {"test": "Cytotoxicity against BALB/C mouse T lymphocytes assessed as cell viability at 40 uM after 8 to 10 hrs by CCK-8 assay relative to control", "format": "cell-based", "details": "read-out: Activity"}}, "data": [{"smiles": "C[C@@H]1C[C@H]2[C@@H]3CCC4=CC(=O)C=C[C@]4(C)[C@@]3(F)[C@@H](O)C[C@]2(C)[C@@]1(O)C(=O)CO", "note": "[DEXAMETHASONE]", "values": [{"measurement": "IC50", "setting": "[1]", "result": 1.6, "unit": "µM"}, {"measurement": "IC50", "setting": "[2]", "result": 0.8, "unit": "µM"}]}, {"smiles": "C[C@]1(CCO)CC[C@H]2C(=CC[C@H]3[C@H](O)CCC[C@]23C)C1", "values": [{"measurement": "viability at 40 µM", "setting": "[3]", "result": "> 85", "unit": "%"}, {"measurement": "viability at 40 µM", "setting": "[4]", "result": "> 85", "unit": "%"}]}, {"smiles": "C[C@]1(CCO)CC[C@H]2C(=CC[C@@H]3[C@]2(C)CCC[C@@]3(C)O)C1", "values": [{"measurement": "viability at 40 µM", "setting": "[3]", "result": "> 85", "unit": "%"}, {"measurement": "viability at 40 µM", "setting": "[4]", "result": "> 85", "unit": "%"}, {"measurement": "IC50", "setting": "[1]", "result": 1, "unit": "µM"}, {"measurement": "IC50", "setting": "[2]", "result": 16.1, "unit": "µM"}]}, {"smiles": "CC1(O)CCC[C@]2(C)C3=C(C[C@@]4(C)CCO[C@@H]3C4)[C@@H](O)C[C@@H]12", "note": "(stereo partly drawn)", "values": [{"measurement": "viability at 40 µM", "setting": "[3]", "result": "> 85", "unit": "%"}, {"measurement": "viability at 40 µM", "setting": "[4]", "result": "> 85", "unit": "%"}]}, {"smiles": "C[C@@]12CCO[C@@H]1C1=CC[C@H]3[C@](C)(O)[C@@H](O)CC[C@]3(C)[C@H]1CC2", "values": [{"measurement": "viability at 40 µM", "setting": "[3]", "result": "> 85", "unit": "%"}, {"measurement": "viability at 40 µM", "setting": "[4]", "result": "> 85", "unit": "%"}]}, {"smiles": "C[C@@]12CCO[C@@H]1C1=CC[C@H]3[C@H](O)CCC[C@]3(C)[C@H]1CC2", "values": [{"measurement": "viability at 40 µM", "setting": "[3]", "result": "> 85", "unit": "%"}, {"measurement": "viability at 40 µM", "setting": "[4]", "result": "> 85", "unit": "%"}]}, {"smiles": "C[C@]1(CCO)CC=C2C(=CC[C@H]3[C@](C)(O)CCC[C@]23C)C1", "values": [{"measurement": "viability at 40 µM", "setting": "[3]", "result": "> 85", "unit": "%"}, {"measurement": "viability at 40 µM", "setting": "[4]", "result": "> 85", "unit": "%"}]}, {"smiles": "C[C@]1(CCO)CC[C@H]2C(=CC[C@@H]3[C@]2(C)CCC[C@]3(C)O)C1", "values": [{"measurement": "viability at 40 µM", "setting": "[3]", "result": "> 85", "unit": "%"}, {"measurement": "viability at 40 µM", "setting": "[4]", "result": "> 85", "unit": "%"}]}, {"smiles": "C=C1CC[C@H]2[C@@](C)(CO)CCC[C@]2(C)[C@H]1CC/C(C)=C/CO", "values": [{"measurement": "viability at 40 µM", "setting": "[3]", "result": "> 85", "unit": "%"}, {"measurement": "viability at 40 µM", "setting": "[4]", "result": "> 85", "unit": "%"}, {"measurement": "IC50", "setting": "[1]", "result": 15.6, "unit": "µM"}, {"measurement": "IC50", "setting": "[2]", "result": 47.2, "unit": "µM"}]}, {"smiles": "C[C@@]12CCO[C@@H]1C1=CC[C@H]3[C@@](O)(CO)CCC[C@]3(C)[C@H]1CC2", "values": [{"measurement": "viability at 40 µM", "setting": "[3]", "result": "> 85", "unit": "%"}, {"measurement": "viability at 40 µM", "setting": "[4]", "result": "> 85", "unit": "%"}, {"measurement": "IC50", "setting": "[1]", "result": 11.1, "unit": "µM"}, {"measurement": "IC50", "setting": "[2]", "result": 35.1, "unit": "µM"}]}, {"smiles": "C[C@@]12CCO[C@@H]1C1=CC[C@@H]3[C@](C)(CCC[C@]3(C)O)[C@H]1CC2", "values": [{"measurement": "viability at 40 µM", "setting": "[3]", "result": "> 85", "unit": "%"}, {"measurement": "viability at 40 µM", "setting": "[4]", "result": "> 85", "unit": "%"}, {"measurement": "IC50", "setting": "[1]", "result": 21.1, "unit": "µM"}, {"measurement": "IC50", "setting": "[2]", "result": 51.8, "unit": "µM"}]}, {"smiles": "C[C@@]12CCO[C@@H]1C1=CC[C@H]3[C@@](C)(O)[C@@H](O)CC[C@]3(C)[C@H]1CC2", "values": [{"measurement": "viability at 40 µM", "setting": "[3]", "result": "> 85", "unit": "%"}, {"measurement": "viability at 40 µM", "setting": "[4]", "result": "> 85", "unit": "%"}]}, {"smiles": "C[C@@]12CCO[C@@H]1C1=CC[C@H]3[C@H](CO)CCC[C@]3(C)[C@H]1CC2", "values": [{"measurement": "viability at 40 µM", "setting": "[3]", "result": "> 85", "unit": "%"}, {"measurement": "viability at 40 µM", "setting": "[4]", "result": "> 85", "unit": "%"}, {"measurement": "IC50", "setting": "[1]", "result": 6.6, "unit": "µM"}, {"measurement": "IC50", "setting": "[2]", "result": 38.2, "unit": "µM"}]}, {"smiles": "C[C@@]1(CCO)CC2=CC[C@@H]3[C@](C)(CCC[C@@]3(C)O)[C@H]2[C@H](O)C1", "values": [{"measurement": "viability at 40 µM", "setting": "[3]", "result": "> 85", "unit": "%"}, {"measurement": "viability at 40 µM", "setting": "[4]", "result": "> 85", "unit": "%"}]}, {"smiles": "C[C@@]12CCO[C@@H]1C1=CC[C@H]3[C@](C)(O)[C@H](O)CC[C@]3(C)[C@H]1CC2", "values": [{"measurement": "viability at 40 µM", "setting": "[3]", "result": "> 85", "unit": "%"}, {"measurement": "viability at 40 µM", "setting": "[4]", "result": "> 85", "unit": "%"}]}, {"smiles": "C[C@]12CC[C@H]3C(=CC[C@@H]4[C@]3(C)CCC[C@@]4(C)O)[C@H]1OC[C@@H]2O", "values": [{"measurement": "viability at 40 µM", "setting": "[3]", "result": "> 85", "unit": "%"}, {"measurement": "viability at 40 µM", "setting": "[4]", "result": "> 85", "unit": "%"}]}, {"smiles": "C[C@@]12CCO[C@@H]1C1=CC[C@H]3[C@](C)(CO)CCC[C@]3(C)[C@H]1CC2", "values": [{"measurement": "viability at 40 µM", "setting": "[3]", "result": "> 85", "unit": "%"}, {"measurement": "viability at 40 µM", "setting": "[4]", "result": "> 85", "unit": "%"}]}, {"smiles": "C[C@@]12CCO[C@@H]1C1=CC[C@@H]3[C@](C)(CCC[C@@]3(C)O)[C@H]1CC2", "values": [{"measurement": "viability at 40 µM", "setting": "[3]", "result": "> 85", "unit": "%"}, {"measurement": "viability at 40 µM", "setting": "[4]", "result": "> 85", "unit": "%"}, {"measurement": "IC50", "setting": "[1]", "result": 27.2, "unit": "µM"}, {"measurement": "IC50", "setting": "[2]", "result": 40, "unit": "µM"}]}, {"smiles": "C[C@@]12CCO[C@@H]1C1=C[C@@H](O)[C@@H]3[C@](C)(CCC[C@]3(C)O)[C@H]1CC2", "values": [{"measurement": "viability at 40 µM", "setting": "[3]", "result": "> 85", "unit": "%"}, {"measurement": "viability at 40 µM", "setting": "[4]", "result": "> 85", "unit": "%"}, {"measurement": "IC50", "setting": "[1]", "result": 14.9, "unit": "µM"}, {"measurement": "IC50", "setting": "[2]", "result": 49.4, "unit": "µM"}]}, {"smiles": "C[C@]12CCC[C@@](C)(O)[C@@H]1CC=C1[C@H]3OC[C@@H](O)[C@@]3(C)CC[C@@H]12", "values": [{"measurement": "viability at 40 µM", "setting": "[3]", "result": "> 85", "unit": "%"}, {"measurement": "viability at 40 µM", "setting": "[4]", "result": "> 85", "unit": "%"}, {"measurement": "IC50", "setting": "[1]", "result": 4, "unit": "µM"}, {"measurement": "IC50", "setting": "[2]", "result": 46, "unit": "µM"}]}, {"smiles": "C[C@]1(CCO)CCC2=C(C1)C(=O)C[C@H]1[C@](C)(O)CCC[C@]21C", "values": [{"measurement": "viability at 40 µM", "setting": "[3]", "result": "> 85", "unit": "%"}, {"measurement": "viability at 40 µM", "setting": "[4]", "result": "> 85", "unit": "%"}]}]}
